Counter-ions that a name gives are not always drawn.
Key:
[1] = test system: IFN; assay: Cytokine Induction in Human Cells: interferon (IFN) secreted by PBMCs, A549/encephalomyocarditis bioassay; format: cell-based; conditions: 18 to 24 hours; further: call rule not given here
In short: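 Human PBMCs from healthy donors at 1.5-2×10^6 cells/mL in RPMI with 10% FBS, exposed to compounds (typically 0.1 to 100 μM, ≤1% DMSO) for 18 to 24 h at 37° C. Secreted IFN measured by A549/encephalomyocarditis virus cytopathic-effect bioassay, in alpha reference units/mL against NIH human leukocyte IFN standard.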

[2] = test system: TNF; assay: Cytokine Induction in Human Cells: tumor necrosis factor (TNF) secreted by PBMCs, ELISA; format: cell-based; conditions: 18 to 24 hours; further: call rule not given here
In short: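 Human donor PBMCs at 1.5-2×10^6 cells/mL in RPMI with 10% FBS were exposed to compound, generally at 0.1 to 100 μM (≤1% DMSO final), for 18 to 24 h at 37 °C. Secreted TNF in supernatant was measured by ELISA and reported as pg/mL.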

With `CCCCc1nc2c(N)nc3c(c2n1CCNC(=O)c1cc(C(C)(C)C)c(O)c(C(C)(C)C)c1)NCCC3` [Example 104, N^1-[2-(4-Amino-2-butyl-6,7,8,9-tetrahydro-1H-imidazo[4,5-c][1,5]naphthyridin-1-yl)ethyl]-3,5-di-(1,1-dimethylethyl)-4-hydroxybenzamide] the IFN induction ([1]; Dose Concentration 0.1 μM) was “−”, the IFN induction ([1]; Dose Concentration 1.0 μM) was “+” and the IFN induction ([1]; Dose Concentration 10.0 μM) was “+”. For the same compound, the IFN induction ([1]; Dose Concentration 100.0 μM) was “−”, the TNF induction ([2]; Dose Concentration 0.1 μM) was “−” and the TNF induction ([2]; Dose Concentration 1.0 μM) was “−”. The TNF induction ([2]; Dose Concentration 10.0 μM) was “+”, the TNF induction ([2]; Dose Concentration 100.0 μM) was “−” and the melting point was 208 to 210 °C.

For `CCCCc1nc2c(N)nc3cccnc3c2n1CCCCNC(=O)Cn1cc(C)c(O)nc1=O` [Example 108, N^1-[4-(4-Amino-2-butyl-1H-imidazo[4,5-c][1,5]naphthyridin-1-yl)butyl]-2-(4-hydroxy-5-methyl-2-oxo-1,2-dihydro-1-pyrimidinyl)acetamide], the IFN induction ([1]; Dose Concentration 0.1 μM) was “+”, the IFN induction ([1]; Dose Concentration 1.0 μM) was “+” and the IFN induction ([1]; Dose Concentration 10.0 μM) was “+”. The IFN induction ([1]; Dose Concentration 100.0 μM) was “+”, the TNF induction ([2]; Dose Concentration 0.1 μM) was “±” and the TNF induction ([2]; Dose Concentration 1.0 μM) was “−”. The TNF induction ([2]; Dose Concentration 10.0 μM) was “+”, the TNF induction ([2]; Dose Concentration 100.0 μM) was “+” and the melting point was 242 to 244 °C.

In the case of `CCCCc1nc2c(N)nc3cccnc3c2n1CCNC(=O)Cc1cccc(O)c1` [Example 98, N^1-[2-(4-Amino-2-butyl-1H-imidazo[4,5-c][1,5]naphthyridin-1-yl)ethyl]-2-(3-hydroxyphenyl)acetamide], the IFN induction ([1]; Dose Concentration 0.1 μM) was “−”, the IFN induction ([1]; Dose Concentration 1.0 μM) was “+” and the IFN induction ([1]; Dose Concentration 10.0 μM) was “+”. The IFN induction ([1]; Dose Concentration 100.0 μM) was “+”, the TNF induction ([2]; Dose Concentration 0.1 μM) was “−” and the TNF induction ([2]; Dose Concentration 1.0 μM) was “+”. The TNF induction ([2]; Dose Concentration 10.0 μM) was “+”, the TNF induction ([2]; Dose Concentration 100.0 μM) was “+” and the melting point was 208 to 210 °C.

For `C/C=C/C(=O)NCCn1c(CCCC)nc2c(N)nc3cccnc3c21` [Example 93, N^1-[2-(4-Amino-2-butyl-1H-imidazo[4,5-c][1,5]naphthyridin-1-yl)ethyl]-(E)-2-butenamide], the IFN induction ([1]; Dose Concentration 0.1 μM) was “−”, the IFN induction ([1]; Dose Concentration 1.0 μM) was “+” and the IFN induction ([1]; Dose Concentration 10.0 μM) was “+”. The IFN induction ([1]; Dose Concentration 100.0 μM) was “+”, the TNF induction ([2]; Dose Concentration 0.1 μM) was “−” and the TNF induction ([2]; Dose Concentration 1.0 μM) was “+”. For the same compound, the TNF induction ([2]; Dose Concentration 10.0 μM) was “+”, the TNF induction ([2]; Dose Concentration 100.0 μM) was “+” and the melting point was 198 to 200 °C.

`CCOCC(=O)Nc1cnc2cccnc2c1NCc1ccccc1.Cl` gave a melting point of 205 to 212 °C.

For `CCCCc1nc2c(N)nc3cccnc3c2n1CCN` [Example 91, 2-(4-Amino-2-butyl-1H-imidazo[4,5-c][1,5]naphthyridin-1-yl)ethaneamine], the IFN induction ([1]; Dose Concentration 0.1 μM) was “+”, the IFN induction ([1]; Dose Concentration 1.0 μM) was “+” and the IFN induction ([1]; Dose Concentration 10.0 μM) was “+”. For the same compound, the IFN induction ([1]; Dose Concentration 100.0 μM) was “+”, the TNF induction ([2]; Dose Concentration 0.1 μM) was “+” and the TNF induction ([2]; Dose Concentration 1.0 μM) was “+”. For the same compound, the TNF induction ([2]; Dose Concentration 10.0 μM) was “+”, the TNF induction ([2]; Dose Concentration 100.0 μM) was “+” and the melting point was 175 to 176 °C.

In the case of `CCCCc1nc2c(N)nc3cccnc3c2n1CCNC(=O)OC(C)(C)C` [Example 90, 1,1-Dimethylethyl N-[2-(4-Amino-2-butyl-1H-imidazo[4,5-c][1,5]naphthyridin-1-yl)ethyl]carbamate], the IFN induction ([1]; Dose Concentration 0.1 μM) was “±”, the IFN induction ([1]; Dose Concentration 1.0 μM) was “+” and the IFN induction ([1]; Dose Concentration 10.0 μM) was “+”. For the same compound, the IFN induction ([1]; Dose Concentration 100.0 μM) was “+”, the TNF induction ([2]; Dose Concentration 0.1 μM) was “−” and the TNF induction ([2]; Dose Concentration 1.0 μM) was “−”. The TNF induction ([2]; Dose Concentration 10.0 μM) was “+”, the TNF induction ([2]; Dose Concentration 100.0 μM) was “+” and the melting point was 118 to 120 °C.

For `CCCCc1nc2c(N)nc3cccnc3c2n1CCNC(=O)C(CC(C)C)NC(=O)OC(C)(C)C` (centres unmarked) [Example 101, 1,1-Dimethylethyl N-[1-({[2-(4-Amino-2-butyl-1H-imidazo[4,5-c][1,5]naphthyridin-1-yl)ethyl]amino}carbonyl)-3-methylbutyl]carbamate], the IFN induction ([1]; Dose Concentration 0.1 μM) was “−”, the IFN induction ([1]; Dose Concentration 1.0 μM) was “−” and the IFN induction ([1]; Dose Concentration 10.0 μM) was “+”. For the same compound, the IFN induction ([1]; Dose Concentration 100.0 μM) was “+”, the TNF induction ([2]; Dose Concentration 0.1 μM) was “−” and the TNF induction ([2]; Dose Concentration 1.0 μM) was “−”. For the same compound, the TNF induction ([2]; Dose Concentration 100.0 μM) was “+” and the melting point was 184 to 185 °C.

With `CC(C)OCCCNc1c([N+](=O)[O-])cnc2cccnc12` [Example 71, N^4-(3-Isopropoxypropyl)-3-nitro[1,5]naphthyridin-4-amine] the melting point was 62.5 to 63.5 °C.

`CC(C)Cn1cnc2cnc3cccnc3c21` [Example 30, 1-(2-Methylpropyl)-1H-imidazo[4,5-c][1,5]naphthyridine] gave a melting point of 82 to 84 °C.

In the case of `Cc1nnnn1-c1cnccc1C(=O)O` [Example 14, 3-(5-Methyl-1H-tetrazol-1-yl)pyridine-4-carboxylic acid], the melting point was 214 to 215 °C (dec.).

For `Cc1nc2cnc3cccnc3c2n1CC(C)C` [Example 34, 2-Methyl-1-(2-methylpropyl)-1H-imidazo[4,5-c][1,5]naphthyridine], the melting point was 118 to 119 °C.

`O=[N+]([O-])c1cnc2cccnc2c1NCc1ccccc1` [Example 66, N-Phenylmethyl-3-nitro[1,5]naphthyridin-4-amine] gave a melting point of 127 to 129 °C.

For `CC(C)Cn1nnc2c3ncnc-3c3ccncc3n21` [Example 21, 1-(2-Methylpropyl)-1H-tetrazolo[1,5-a]imidazo[4,5-c][1,7]naphthyridine], the melting point was 181 to 182.5 °C.

`CCCCc1nc2c(N)nc3cccnc3c2n1CCCCNC(=O)c1ccc(N2CCOCC2)nc1` (hydrate or solvate) [Example 106, N^1-[4(4-Amino-2-butyl-1H-imidazo[4,5-c][1,5]naphthyridin-1-yl)butyl]-6-morpholinonicotinamide] gave a melting point of 95 to 100 °C.

For `CC(C)CNc1cc2nnnn2c2cnccc12` [Example 18, N^5-(2-Methylpropyl)tetrazolo[1,5-a][1,7]naphthyridin-5-amine], the melting point was 220 to 221 °C.

`CCCCc1nc2c(N)nc3c(c2n1CC(C)C)CCCN3` (hydrate or solvate) [Example 13, 2-Butyl-6,7,8,9-tetrahydro-1-(2-methylpropyl) 1H-imidazo[4,5-c][1,8]naphthyridin-4-amine] gave a melting point of 81 to 84 °C.

`CC(C)CNc1c([N+](=O)[O-])cnc2cccnc12` [Example 29, N^4-(2-Methylpropyl)-3-nitro[1,5]naphthyridin-4-amine] showed a melting point of 97 to 99 °C.

In the case of `CCCCc1nc2cnc3cccnc3c2n1CCCCNC(=O)OC(C)(C)C` [Example 43, 1,1-Dimethylethyl N-[4-(2-Butyl-1H-imidazo[4,5-c][1,5]naphthyridin-1-yl)butyl]carbamate], the melting point was 96 to 98 °C.

`Clc1cc2nnnn2c2cnccc12` [Example 17, 5-Chlorotetrazolo[1,5-a][1,7]naphthyridine] showed a melting point of 176 to 177 °C.

In the case of `Clc1cc2nnnn2c2ncccc12` [Example 4, 5-Chlorotetrazolo[1,5-a][1,8]naphthyridine], the melting point was 229 to 230 °C (dec.).

Work on `CC(C)(O)CNc1c([N+](=O)[O-])cnc2cccnc12` [Example 59, 1,1-Dimethyl-2-[(3-nitro[1,5]naphthyridin-4-yl)amino]ethanol] yielded a melting point of 184.5 to 186 °C.

`CC(C)(C)OC(=O)NCCNc1c([N+](=O)[O-])cnc2cccnc12` [Example 86, 1,1-Dimethylethyl N-{2-[(3-Nitro[1,5]naphthyridin-4-yl)amino]ethyl}carbamate] showed a melting point of 149 to 151 °C.

For `CCCCc1nc2cnc3cccnc3c2n1CCOc1ccccc1` [Example 83, 2-(2-Butyl-1H-imidazo[4,5-c][1,5]naphthyridin-1-yl)ethyl Phenyl Ether], the melting point was 150 to 150.5 °C.

Work on `CCOCc1nc2cnc3cccnc3c2n1Cc1ccccc1` [Example 68, 2-Ethoxymethyl-1-phenylmethyl-1H-imidazo[4,5-c][1,5]naphthyridine] yielded a melting point of 118 to 119 °C.

In the case of `O.Oc1cc2nnnn2c2cnccc12` (hydrate or solvate), the melting point was 247 to 248 °C (dec.).

For `CC(C)Cn1nnn2c3ncccc3c3ncnc-3c12` [Example 8, 1-(2-Methylpropyl)-1H-tetrazolo[1,5-a]imidazo[4,5-c][1,8]naphthyridine], the melting point was 248 to 250 °C (dec.).

With `CCCCc1nc2c(N)nc3cccnc3c2n1CCNC(=O)CCc1ccccc1` (as salt: hydrochloride) [Example 96, N^1-[2-(4-Amino-2-butyl-1H-imidazo[4,5-c][1,5]naphthyridin-1-yl)ethyl]-3-phenylpropanamide Hydrochloride] the melting point was 183 to 185 °C.

In the case of `O=[N+]([O-])c1cnc2cccnc2c1NCCOc1ccccc1` [Example 81, N^4-(2-Phenoxyethyl)-3-nitro[1,5]naphthyridin-4-amine], the melting point was 107 to 108 °C.

For `CCCCOCCCn1c(CCCC)nc2cnc3cccnc3c21` [Example 78, 1-(3-Butoxypropyl)-2-butyl-1H-imidazo[4,5-c][1,5]naphthyridine], the melting point was 56.5 to 57.5 °C.

`Cc1nnnn1-c1ncccc1C(=O)O` [Example 1, 2-(5-Methyl-1H-tetrazol-1-yl)nicotinic Acid] showed a melting point of 178 to 180 °C.

For `CCCCc1nc2c(N)nc3cccnc3c2n1CCNC(=O)C1CCC(=O)N1` (centres unmarked) [Example 213], the melting point was 135 to 138 °C.

With `Oc1cc2nnnn2c2ncccc12` [Example 3, Tetrazolo[1,5-a][1,8]naphthyridin-5-ol] the melting point was 236 °C (dec.).

In the case of `CC(C)Cn1cnc2c(N)nc3ncccc3c21` (hydrate or solvate) [Example 9, 1-(2-Methylpropyl)-1H-imidazo[4,5-c][1,8]naphthyridin-4-amine hydrate], the melting point was 325 to 330 °C (dec.).

Reference: US7678918B2, “Intermediates for imidazonaphthyridines” (3M Innovative Properties Company, priority 1997, dated 2010)
